Legend:
Experiment in all cases: SelectScreen ZLYTE
Format in all cases: biochemical
Settings in all cases: INX-0315 at 100nM
YES1 = target: T1, YES1 (Homo sapiens, UniProt P07947)
T1 construct: purchased Thermo Fisher Scientific SelectScreen (plus Nanosyn / Reaction Biology for CDK/cyclin lines)
How it was run: (§1)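 Under the service's preestablished protocols, INX-315 was tested initially at 100 nmol/L with 1% DMSO present, and subsequently across ten concentrations from 1 µmol/L to 0.0495 nmol/L.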

ZAP70 = target: T2, ZAP70 (Homo sapiens, UniProt P43403)
T2 construct: purchased Thermo Fisher Scientific SelectScreen (plus Nanosyn / Reaction Biology for CDK/cyclin lines)
How it was run: as §1

MKNK1 (MNK1) = target: T3, MKNK1 (MNK1) (Homo sapiens, UniProt Q9BUB5)
T3 construct: purchased Thermo Fisher Scientific SelectScreen (plus Nanosyn / Reaction Biology for CDK/cyclin lines)
How it was run: as §1

HIPK3 (YAK1) = target: T4, HIPK3 (YAK1) (Homo sapiens, UniProt Q9H422)
T4 construct: purchased Thermo Fisher Scientific SelectScreen (plus Nanosyn / Reaction Biology for CDK/cyclin lines)
How it was run: as §1

DAPK3 (ZIPK) = target: T5, DAPK3 (ZIPK) (Homo sapiens, UniProt O43293)
T5 construct: purchased Thermo Fisher Scientific SelectScreen (plus Nanosyn / Reaction Biology for CDK/cyclin lines)
How it was run: as §1

MAP4K4 (HGK) = target: T6, MAP4K4 (HGK) (Homo sapiens, UniProt O95819)
T6 construct: purchased Thermo Fisher Scientific SelectScreen (plus Nanosyn / Reaction Biology for CDK/cyclin lines)
How it was run: as §1

PAK3 = target: T7, PAK3 (Homo sapiens, UniProt O75914)
T7 construct: purchased Thermo Fisher Scientific SelectScreen (plus Nanosyn / Reaction Biology for CDK/cyclin lines)
How it was run: as §1

KIT T670I = target: T8, KIT T670I (Homo sapiens, UniProt P10721, T670I)
T8 construct: purchased Thermo Fisher Scientific SelectScreen (plus Nanosyn / Reaction Biology for CDK/cyclin lines)
How it was run: as §1

RET A883F = target: T9, RET A883F (Homo sapiens, UniProt P07949, A883F)
T9 construct: purchased Thermo Fisher Scientific SelectScreen (plus Nanosyn / Reaction Biology for CDK/cyclin lines)
How it was run: as §1

CDC42 BPB (MRCKB) = target: T10, CDC42 BPB (MRCKB) (Homo sapiens, UniProt Q9Y5S2)
T10 construct: purchased Thermo Fisher Scientific SelectScreen (plus Nanosyn / Reaction Biology for CDK/cyclin lines)
How it was run: as §1

RET V804E = target: T11, RET V804E (Homo sapiens, UniProt P07949, V804E)
T11 construct: purchased Thermo Fisher Scientific SelectScreen (plus Nanosyn / Reaction Biology for CDK/cyclin lines)
How it was run: as §1

JAK1 = target: T12, JAK1 (Homo sapiens, UniProt P23458)
T12 construct: purchased Thermo Fisher Scientific SelectScreen (plus Nanosyn / Reaction Biology for CDK/cyclin lines)
How it was run: as §1

NTRK1 (TRKA) = target: T13, NTRK1 (TRKA) (Homo sapiens, UniProt P04629)
T13 construct: purchased Thermo Fisher Scientific SelectScreen (plus Nanosyn / Reaction Biology for CDK/cyclin lines)
How it was run: as §1

MST4 = target: T14, MST4 (Homo sapiens, UniProt Q9P289)
T14 construct: purchased Thermo Fisher Scientific SelectScreen (plus Nanosyn / Reaction Biology for CDK/cyclin lines)
How it was run: as §1

PRKCE (PKC epsilon) = target: T15, PRKCE (PKC epsilon) (Homo sapiens, UniProt Q02156)
T15 construct: purchased Thermo Fisher Scientific SelectScreen (plus Nanosyn / Reaction Biology for CDK/cyclin lines)
How it was run: as §1

HIPK2 = target: T16, HIPK2 (Homo sapiens, UniProt Q9H2X6)
T16 construct: purchased Thermo Fisher Scientific SelectScreen (plus Nanosyn / Reaction Biology for CDK/cyclin lines)
How it was run: as §1

MAP2K2 (MEK2) = target: T17, MAP2K2 (MEK2) (Homo sapiens, UniProt P36507)
T17 construct: purchased Thermo Fisher Scientific SelectScreen (plus Nanosyn / Reaction Biology for CDK/cyclin lines)
How it was run: as §1

CSNK1D (CK1 delta) = target: T18, CSNK1D (CK1 delta) (Homo sapiens, UniProt P48730)
T18 construct: purchased Thermo Fisher Scientific SelectScreen (plus Nanosyn / Reaction Biology for CDK/cyclin lines)
How it was run: as §1

CDK5/p25 = target: T19, CDK5/p25 (Homo sapiens, UniProt Q00535)
T19 construct: purchased BPS 40105
How it was run: as §1

FGFR1 = target: T20, FGFR1 (Homo sapiens, UniProt P11362)
T20 construct: purchased Thermo Fisher Scientific SelectScreen (plus Nanosyn / Reaction Biology for CDK/cyclin lines)
How it was run: as §1

PRKCD (PKC delta) = target: T21, PRKCD (PKC delta) (Homo sapiens, UniProt Q05655)
T21 construct: purchased Thermo Fisher Scientific SelectScreen (plus Nanosyn / Reaction Biology for CDK/cyclin lines)
How it was run: as §1

MAPKAPK5 (PRAK) = target: T22, MAPKAPK5 (PRAK) (Homo sapiens, UniProt Q8IW41)
T22 construct: purchased Thermo Fisher Scientific SelectScreen (plus Nanosyn / Reaction Biology for CDK/cyclin lines)
How it was run: as §1

RPS6KB2 (p70S6Kb) = target: T23, RPS6KB2 (p70S6Kb) (Homo sapiens, UniProt Q9UBS0)
T23 construct: purchased Thermo Fisher Scientific SelectScreen (plus Nanosyn / Reaction Biology for CDK/cyclin lines)
How it was run: as §1

SRMS (Srm) = target: T24, SRMS (Srm) (Homo sapiens, UniProt Q9H3Y6)
T24 construct: purchased Thermo Fisher Scientific SelectScreen (plus Nanosyn / Reaction Biology for CDK/cyclin lines)
How it was run: as §1

MATK (HYL) = target: T25, MATK (HYL) (Homo sapiens, UniProt P42679)
T25 construct: purchased Thermo Fisher Scientific SelectScreen (plus Nanosyn / Reaction Biology for CDK/cyclin lines)
How it was run: as §1

FLT3 D835Y = target: T26, FLT3 D835Y (Homo sapiens, UniProt P36888, D835Y)
T26 construct: purchased Thermo Fisher Scientific SelectScreen (plus Nanosyn / Reaction Biology for CDK/cyclin lines)
How it was run: as §1

BRAF = target: T27, BRAF (Homo sapiens, UniProt P15056)
T27 construct: purchased Thermo Fisher Scientific SelectScreen (plus Nanosyn / Reaction Biology for CDK/cyclin lines)
How it was run: as §1

ABL1 F317I = target: T28, ABL1 F317I (Homo sapiens, UniProt P00519, F317I)
T28 construct: purchased Thermo Fisher Scientific SelectScreen (plus Nanosyn / Reaction Biology for CDK/cyclin lines)
How it was run: as §1

CLK1 = target: T29, CLK1 (Homo sapiens, UniProt P49759)
T29 construct: purchased Thermo Fisher Scientific SelectScreen (plus Nanosyn / Reaction Biology for CDK/cyclin lines)
How it was run: as §1

BRSK1 (SAD1) = target: T30, BRSK1 (SAD1) (Homo sapiens, UniProt Q8TDC3)
T30 construct: purchased Thermo Fisher Scientific SelectScreen (plus Nanosyn / Reaction Biology for CDK/cyclin lines)
How it was run: as §1

STK25 (YSK1) = target: T31, STK25 (YSK1) (Homo sapiens, UniProt O00506)
T31 construct: purchased Thermo Fisher Scientific SelectScreen (plus Nanosyn / Reaction Biology for CDK/cyclin lines)
How it was run: as §1

NIM1K = target: T32, NIM1K (Homo sapiens, UniProt Q8IY84)
T32 construct: purchased Thermo Fisher Scientific SelectScreen (plus Nanosyn / Reaction Biology for CDK/cyclin lines)
How it was run: as §1

INSRR (IRR) = target: T33, INSRR (IRR) (Homo sapiens, UniProt P14616)
T33 construct: purchased Thermo Fisher Scientific SelectScreen (plus Nanosyn / Reaction Biology for CDK/cyclin lines)
How it was run: as §1

EGFR (ErbB1) C797S = target: T34, EGFR (ErbB1) C797S (Homo sapiens, UniProt P00533, C797S)
T34 construct: purchased Thermo Fisher Scientific SelectScreen (plus Nanosyn / Reaction Biology for CDK/cyclin lines)
How it was run: as §1

PDGFRA (PDGFR alpha) = target: T35, PDGFRA (PDGFR alpha) (Homo sapiens, UniProt P16234)
T35 construct: purchased Thermo Fisher Scientific SelectScreen (plus Nanosyn / Reaction Biology for CDK/cyclin lines)
How it was run: as §1

STK22D (TSSK1) = target: T36, STK22D (TSSK1) (Homo sapiens, UniProt Q9BXA7)
T36 construct: purchased Thermo Fisher Scientific SelectScreen (plus Nanosyn / Reaction Biology for CDK/cyclin lines)
How it was run: as §1

PLK2 = target: T37, PLK2 (Homo sapiens, UniProt Q9NYY3)
T37 construct: purchased Thermo Fisher Scientific SelectScreen (plus Nanosyn / Reaction Biology for CDK/cyclin lines)
How it was run: as §1

T8 sequence (P10721 26-976 T670I): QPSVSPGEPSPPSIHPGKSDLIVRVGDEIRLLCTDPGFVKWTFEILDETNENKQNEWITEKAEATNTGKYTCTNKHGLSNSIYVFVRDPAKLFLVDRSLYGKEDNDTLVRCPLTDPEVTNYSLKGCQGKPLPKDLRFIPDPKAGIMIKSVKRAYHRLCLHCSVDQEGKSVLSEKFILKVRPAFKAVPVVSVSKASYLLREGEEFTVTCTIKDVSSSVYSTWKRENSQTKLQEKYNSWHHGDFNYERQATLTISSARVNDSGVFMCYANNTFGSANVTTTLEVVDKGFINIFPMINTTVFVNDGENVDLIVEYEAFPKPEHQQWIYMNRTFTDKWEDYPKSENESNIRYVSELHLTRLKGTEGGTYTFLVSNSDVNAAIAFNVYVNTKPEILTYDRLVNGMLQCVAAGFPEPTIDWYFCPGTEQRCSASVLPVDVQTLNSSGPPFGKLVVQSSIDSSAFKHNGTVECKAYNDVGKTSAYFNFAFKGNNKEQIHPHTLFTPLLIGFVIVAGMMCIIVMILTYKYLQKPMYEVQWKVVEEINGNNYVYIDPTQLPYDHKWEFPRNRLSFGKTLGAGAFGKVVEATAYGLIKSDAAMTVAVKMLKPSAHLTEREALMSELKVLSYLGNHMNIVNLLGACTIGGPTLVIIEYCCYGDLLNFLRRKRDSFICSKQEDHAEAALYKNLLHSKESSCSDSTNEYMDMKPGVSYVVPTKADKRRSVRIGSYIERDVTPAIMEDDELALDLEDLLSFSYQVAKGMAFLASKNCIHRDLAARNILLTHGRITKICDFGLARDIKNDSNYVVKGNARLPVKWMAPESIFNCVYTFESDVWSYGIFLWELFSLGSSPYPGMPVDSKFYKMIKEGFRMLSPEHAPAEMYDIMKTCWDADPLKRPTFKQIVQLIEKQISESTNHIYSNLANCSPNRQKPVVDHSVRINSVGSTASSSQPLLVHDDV
T31 sequence (O00506 whole entry): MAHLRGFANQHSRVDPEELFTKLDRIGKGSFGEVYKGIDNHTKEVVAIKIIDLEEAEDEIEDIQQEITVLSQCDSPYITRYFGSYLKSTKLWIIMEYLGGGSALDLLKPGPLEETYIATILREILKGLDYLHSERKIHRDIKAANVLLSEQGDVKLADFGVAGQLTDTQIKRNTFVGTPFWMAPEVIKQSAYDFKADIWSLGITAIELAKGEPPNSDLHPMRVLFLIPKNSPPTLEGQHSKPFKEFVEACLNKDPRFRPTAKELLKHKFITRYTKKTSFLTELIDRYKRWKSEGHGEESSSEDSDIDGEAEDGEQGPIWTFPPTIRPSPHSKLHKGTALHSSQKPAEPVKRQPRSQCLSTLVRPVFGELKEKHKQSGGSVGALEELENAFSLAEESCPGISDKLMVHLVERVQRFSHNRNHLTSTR
T22 sequence (Q8IW41 whole entry): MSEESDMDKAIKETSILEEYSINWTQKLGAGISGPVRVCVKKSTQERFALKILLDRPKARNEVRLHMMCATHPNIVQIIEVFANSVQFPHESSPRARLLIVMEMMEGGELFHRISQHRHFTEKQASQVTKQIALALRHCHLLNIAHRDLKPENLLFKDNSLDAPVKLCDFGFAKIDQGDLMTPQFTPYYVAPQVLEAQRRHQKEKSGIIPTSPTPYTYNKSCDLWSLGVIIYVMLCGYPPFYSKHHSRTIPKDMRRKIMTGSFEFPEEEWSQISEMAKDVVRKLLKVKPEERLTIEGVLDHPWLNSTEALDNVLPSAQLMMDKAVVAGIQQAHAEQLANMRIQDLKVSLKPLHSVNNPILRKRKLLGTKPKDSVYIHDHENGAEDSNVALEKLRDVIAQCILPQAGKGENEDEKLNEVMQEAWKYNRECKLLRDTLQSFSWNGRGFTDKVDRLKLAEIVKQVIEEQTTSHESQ
T7 sequence (O75914 whole entry): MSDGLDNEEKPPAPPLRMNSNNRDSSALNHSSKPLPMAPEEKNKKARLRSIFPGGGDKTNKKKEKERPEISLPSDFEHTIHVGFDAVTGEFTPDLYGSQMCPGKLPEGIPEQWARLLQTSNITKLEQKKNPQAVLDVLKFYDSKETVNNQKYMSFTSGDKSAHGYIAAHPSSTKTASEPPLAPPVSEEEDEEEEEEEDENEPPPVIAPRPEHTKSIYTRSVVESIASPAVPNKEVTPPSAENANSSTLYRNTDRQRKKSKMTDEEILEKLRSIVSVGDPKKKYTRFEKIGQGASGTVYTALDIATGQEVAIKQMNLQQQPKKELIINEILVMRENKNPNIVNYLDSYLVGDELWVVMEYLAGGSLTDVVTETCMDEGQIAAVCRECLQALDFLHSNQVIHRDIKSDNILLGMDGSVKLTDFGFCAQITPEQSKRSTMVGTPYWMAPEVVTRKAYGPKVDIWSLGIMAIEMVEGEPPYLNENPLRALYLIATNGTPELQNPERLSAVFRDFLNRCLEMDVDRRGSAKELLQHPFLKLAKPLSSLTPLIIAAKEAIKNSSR
T12 sequence (P23458 whole entry): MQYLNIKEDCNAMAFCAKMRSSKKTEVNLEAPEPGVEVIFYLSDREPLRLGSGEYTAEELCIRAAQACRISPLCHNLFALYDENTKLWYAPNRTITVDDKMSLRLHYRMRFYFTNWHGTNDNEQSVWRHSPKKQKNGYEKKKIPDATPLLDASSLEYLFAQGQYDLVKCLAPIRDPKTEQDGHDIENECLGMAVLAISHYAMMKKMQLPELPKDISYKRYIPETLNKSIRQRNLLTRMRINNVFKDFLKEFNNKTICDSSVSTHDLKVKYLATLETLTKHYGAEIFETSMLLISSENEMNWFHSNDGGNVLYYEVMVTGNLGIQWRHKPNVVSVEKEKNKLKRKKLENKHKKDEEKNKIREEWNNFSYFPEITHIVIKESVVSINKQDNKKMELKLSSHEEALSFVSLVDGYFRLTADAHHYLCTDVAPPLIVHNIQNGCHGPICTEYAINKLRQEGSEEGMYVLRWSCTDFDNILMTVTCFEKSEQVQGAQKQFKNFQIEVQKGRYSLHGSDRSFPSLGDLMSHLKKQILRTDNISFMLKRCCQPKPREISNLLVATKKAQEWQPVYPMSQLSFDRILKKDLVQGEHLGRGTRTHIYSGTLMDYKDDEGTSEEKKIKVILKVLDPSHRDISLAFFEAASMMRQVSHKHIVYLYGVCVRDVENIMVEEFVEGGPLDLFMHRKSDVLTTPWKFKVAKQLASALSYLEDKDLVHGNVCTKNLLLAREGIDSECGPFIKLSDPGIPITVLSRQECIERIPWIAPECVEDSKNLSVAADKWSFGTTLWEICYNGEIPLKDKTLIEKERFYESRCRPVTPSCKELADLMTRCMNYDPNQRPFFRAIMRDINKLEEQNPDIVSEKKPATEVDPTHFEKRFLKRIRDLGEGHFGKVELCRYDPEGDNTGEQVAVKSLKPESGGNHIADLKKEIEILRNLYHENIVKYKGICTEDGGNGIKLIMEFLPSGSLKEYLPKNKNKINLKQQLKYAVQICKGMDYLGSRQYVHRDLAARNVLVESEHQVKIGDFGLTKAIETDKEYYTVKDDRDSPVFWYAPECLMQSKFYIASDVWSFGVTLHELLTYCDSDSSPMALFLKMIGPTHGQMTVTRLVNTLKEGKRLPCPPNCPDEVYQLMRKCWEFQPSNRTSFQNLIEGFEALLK
T2 sequence (P43403 whole entry): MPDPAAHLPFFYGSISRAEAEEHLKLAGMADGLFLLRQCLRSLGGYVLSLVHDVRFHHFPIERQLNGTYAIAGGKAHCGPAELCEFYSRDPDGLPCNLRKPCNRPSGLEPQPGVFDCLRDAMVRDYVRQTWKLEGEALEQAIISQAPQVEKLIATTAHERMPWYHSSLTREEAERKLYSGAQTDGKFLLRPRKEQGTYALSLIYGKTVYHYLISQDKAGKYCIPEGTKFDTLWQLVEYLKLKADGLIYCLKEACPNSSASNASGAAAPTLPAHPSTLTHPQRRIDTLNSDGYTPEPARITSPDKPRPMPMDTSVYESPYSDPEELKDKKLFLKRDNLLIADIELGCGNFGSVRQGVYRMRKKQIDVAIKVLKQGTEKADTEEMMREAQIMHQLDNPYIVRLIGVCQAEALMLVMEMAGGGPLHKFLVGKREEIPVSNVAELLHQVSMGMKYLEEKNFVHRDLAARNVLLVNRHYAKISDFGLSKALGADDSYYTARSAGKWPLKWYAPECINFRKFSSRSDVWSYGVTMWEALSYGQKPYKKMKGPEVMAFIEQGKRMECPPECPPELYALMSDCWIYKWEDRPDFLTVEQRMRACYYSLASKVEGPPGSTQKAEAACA
T5 sequence (O43293 whole entry): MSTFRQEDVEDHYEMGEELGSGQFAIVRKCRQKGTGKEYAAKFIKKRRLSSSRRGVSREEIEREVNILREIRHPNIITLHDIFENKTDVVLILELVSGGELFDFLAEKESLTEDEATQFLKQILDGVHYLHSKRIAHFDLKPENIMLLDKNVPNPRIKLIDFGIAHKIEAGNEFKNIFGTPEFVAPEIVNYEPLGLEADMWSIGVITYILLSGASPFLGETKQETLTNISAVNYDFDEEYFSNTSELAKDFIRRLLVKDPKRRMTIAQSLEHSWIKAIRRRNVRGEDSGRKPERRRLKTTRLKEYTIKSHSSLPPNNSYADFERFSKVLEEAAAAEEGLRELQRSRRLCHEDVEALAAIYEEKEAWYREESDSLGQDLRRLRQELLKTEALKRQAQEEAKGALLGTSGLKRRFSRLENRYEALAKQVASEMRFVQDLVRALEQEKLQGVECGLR
T17 sequence (P36507 whole entry): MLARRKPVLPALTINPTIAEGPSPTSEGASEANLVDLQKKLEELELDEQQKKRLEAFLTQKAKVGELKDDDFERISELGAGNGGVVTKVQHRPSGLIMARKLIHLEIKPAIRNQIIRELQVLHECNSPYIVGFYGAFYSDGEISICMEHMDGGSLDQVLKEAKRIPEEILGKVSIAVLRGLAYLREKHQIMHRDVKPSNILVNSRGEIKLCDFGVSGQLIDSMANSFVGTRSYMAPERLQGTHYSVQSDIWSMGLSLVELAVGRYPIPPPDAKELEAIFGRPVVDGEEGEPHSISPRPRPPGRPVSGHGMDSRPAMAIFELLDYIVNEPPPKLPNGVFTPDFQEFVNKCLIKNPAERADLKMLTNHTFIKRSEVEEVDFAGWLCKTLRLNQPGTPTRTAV

NS(=O)(=O)c1ccc(Nc2ncc3cc4n(c3n2)C2(CCCCC2)C(=O)NN4)cc1 [INX-315]
inhibition at 0.1 µM (YES1): 16%
inhibition at 0.1 µM (ZAP70): -1%
inhibition at 0.1 µM (MKNK1 (MNK1)): 3%
inhibition at 0.1 µM (HIPK3 (YAK1)): 4%
inhibition at 0.1 µM (DAPK3 (ZIPK)): 6%
inhibition at 0.1 µM (MAP4K4 (HGK)): 23%
inhibition at 0.1 µM (PAK3): 4%
inhibition at 0.1 µM (KIT T670I): 7%
inhibition at 0.1 µM (RET A883F): 22%
inhibition at 0.1 µM (CDC42 BPB (MRCKB)): -1%
inhibition at 0.1 µM (RET V804E): 13%
inhibition at 0.1 µM (JAK1): 78%
inhibition at 0.1 µM (NTRK1 (TRKA)): 44%
inhibition at 0.1 µM (MST4): -4%
inhibition at 0.1 µM (PRKCE (PKC epsilon)): 3%
inhibition at 0.1 µM (HIPK2): 5%
inhibition at 0.1 µM (MAP2K2 (MEK2)): 17%
inhibition at 0.1 µM (CSNK1D (CK1 delta)): 0%
inhibition at 0.1 µM (CDK5/p25): 93%
inhibition at 0.1 µM (FGFR1): 4%
inhibition at 0.1 µM (PRKCD (PKC delta)): -5%
inhibition at 0.1 µM (MAPKAPK5 (PRAK)): 2%
inhibition at 0.1 µM (RPS6KB2 (p70S6Kb)): 4%
inhibition at 0.1 µM (SRMS (Srm)): 17%
inhibition at 0.1 µM (MATK (HYL)): 6%
inhibition at 0.1 µM (FLT3 D835Y): 31%
inhibition at 0.1 µM (BRAF): 11%
inhibition at 0.1 µM (ABL1 F317I): 8%
inhibition at 0.1 µM (CLK1): 5%
inhibition at 0.1 µM (BRSK1 (SAD1)): 16%
inhibition at 0.1 µM (STK25 (YSK1)): 1%
inhibition at 0.1 µM (NIM1K): 5%
inhibition at 0.1 µM (INSRR (IRR)): 3%
inhibition at 0.1 µM (EGFR (ErbB1) C797S): -8%
inhibition at 0.1 µM (PDGFRA (PDGFR alpha)): 21%
inhibition at 0.1 µM (STK22D (TSSK1)): 11%
inhibition at 0.1 µM (PLK2): 5%

From publication PMC10905675, “INX-315, a Selective CDK2 Inhibitor, Induces Cell Cycle Arrest and Senescence in Solid Tumors” (Cancer Discovery, 2023)
